Marks after values point to notes of the source that are not given here.
Tested on: Immune cell subsets
Experiment: Human HIV clinical protocol: immune phenotypes by flow cytometry
Assay type: in vivo
Settings: for CD8+CD16+CD38+ cells, median: Baseline 8; for CD8−CD16+ cells, median: Baseline 53; for CD8+CD69+CD25− cells, median: Baseline 18; for Activated T cells (CD8+ CD69+ CD25−), median: about 1 week after last dose
Protocol: Patients infected with HIV are dosed with an i.m. injection of 25-200 mg of BrEA using a formulation containing 100 mg/mL BrEA, PEG300 ˜30% v/v, propylene glycol 30% v/v, benzyl benzoate 30% v/v and benzyl alcohol 2% v/v. The pateints are dosed once per day for 5 consecutive days followed by a period of about 28 days or longer with no BrEA treatment. The patients were them provided with one more course of 5 consecutive days of dosing with BrEA, followed by a non-dosing period of at least about 28 days. Up to 8 rounds of 5-day treatments, followed by at least 28 days of no dosing were provided. Immunological responses were then assayed using blood or plasma samples from the patients by flow cytometry and other known analytical methods. Immune cell subsets or other measured markers were assayed within 24 hours of obtaining the sample from each patient. Labeled antibodies, e.g., anti-CD antigen antibodies conjugated with fluorescent dyes (FITC, phycoerythrin, allophycocyanin or PerCP), were prepared and used essentially according to standard protocols using commercially available reagents, see, e.g., PharMingen, 1998 Research Products Catalog, technical protocols at pages 732-774, human cell surface molecules at pages 182-295 and mouse, rat and hamster cell surface molecules at pages 2-173 and cytokine and chemokine reagents at pages 344-489.
Otherwise untreated patients with CD4 counts of ≧200/μL and HIV-1 viral RNA between 5,000 and 1,000,000 copies/mL (branched-DNA, version 3.0, Bayer, Tarrytown, N.Y.) provided informed consent and were enrolled into a Phase I/II dose-escalation study of the safety and efficacy of intramuscular injections of BrEA. The protocol was conducted in South Africa. In the first cohort, four patients received an initial injection of 1 mL (50 mg), followed by a safety and pharmocokinetic study for seven days, and then received five daily injections of 1 mL (50 mg). The second cohort of 8 patients was randomized in a 1:2 ratio to receive either 50 mg (1 mL) or 100 mg (2 mL) on the same schedule. Patients were allowed at the discretion of the investigators to receive up to three additional courses each, repeated after 28 days of observation. The protocol was amended to introduce an improved formulation, and to extend the initial pharmacokinetic and safety period to 14 days, the observation period following the five daily doses to 35 days, and to allow up to 7 treatment courses. A third cohort of 24 patients was randomized in a 1:2:4 ratio to receive either 50 mg (0.5 mL), 100 mg (1 mL), or 200 mg (2 mL) of BrEA. The patients were all male, since initial safety studies are not permitted in females in South Africa. Within the group of 39 patients randomized, the ethnic demographic included was 18 Caucasian, 17 African, and 4 other. The average age was 34 (range 20-63), the average initial CD4/μL was 434 (range 176-1210), and the average viral load was 13,772 copies/mL (range 3,020-158,489). Patients underwent physical examinations and provided samples for chemistry, hematology, virology and immunology testing approximately every two weeks.
Course 1, 2 and 3 refer to each 5 consecutive day treatment regimen of one daily injection with BrEA (50 or 100 mg BrEA per injection). The formulation contained 100 mg/mL BrEA, PEG300 ˜30% v/v, propylene glycol 30% v/v, benzyl benzoate 30% v/v and benzyl alcohol 2% v/v. The data shown below was obtained from patient blood samples at baseline (on the day dosing was initiated) and at various times after the patients received at least one dose of BrEA. […] The patients in this protocol initially had CD4 counts of at least 200 per mm^3 and a serum HIV RNA load of 5,000 to 1×10^6 RNA copies/mL. […] Average CD4 IL-10 production dropped from a median of 66% to 4% of the cells, while CD4 IFNγ went from a median of 8% to 63%, leading to a Th2 to a Th1 shift in cytokine production. […]

C[C@]12CC[C@H](O)C[C@@H]1CC[C@@H]1[C@@H]2CC[C@]2(C)C(=O)[C@H](Br)C[C@@H]12 [BrEA, 16α-bromo-3β-hydroxy-5α-androstane-17-one]
Early Activation-Stage CD8+ T cells: Time-averaged AUC Increase Mean ± SEM (CD3+ CD8+ CD69+ CD25−, n=36, p=0.049): 67 ± 33% | LAK: Time-averaged AUC Increase Mean ± SEM (CD8+ CD16+, n=36, p=0.19): 13 ± 9% | NK: Time-averaged AUC Increase Mean ± SEM (CD8−CD16+, n=36, p=0.20): 29 ± 22% | Lin− HLA-DR+ CD11c+/CD123+ cells, median (Course 1, Baseline 3.2, n=10, p<0.001): 17.7 cells/μL | CD8+CD16+CD38+ cells, median (Course 1, n=10, p<0.001): 27 cells/μL | CD8−CD16+ cells, median (Course 1, n=12, p<0.001): 253 cells/μL | CD8+CD69+CD25− cells, median (Course 1, HIV patients, 50 or 100 mg i.m. daily ×5, n=13, p<0.001): 54 cells/μL | CD8+CD16+CD38+ cells, median (Course 2, n=4, p=0.047): 28 cells/μL | CD8+CD69+CD25− cells, median (Course 2, n=9, p<0.001): 56 cells/μL | CD8−CD16+ cells, median (Course 2, n=4, p=0.02): 288 cells/μL | Lin− HLA-DR+ CD11c+/CD123+ cells, median (Course 2, baseline value from initiation of 2nd course = 6.4, n=5, p=0.02): 11.4^c cells/μL | CD8+CD16+CD38+ cells, median (Course 3, n=4, p=0.02): 25 cells/μL | CD8+CD69+CD25− cells, median (Course 3, n=4, p=0.04): 75 cells/μL | CD8−CD16+ cells, median (Course 3, n=2, p=0.04): 249 cells/μL | Lin− HLA-DR+ CD11c+/CD123+ cells, median (Course 3, baseline value from initiation of 2nd course = 6.4, n=4, p=0.04): 14.7^c cells/μL | DC1 (CD11c+) Dendritic Cells: Time-averaged AUC Increase Mean ± SEM (Lineage− HLA-DR+ CD11c+, n=31, p=0.010): 50 ± 18% | DC2 (CD123+) Dendritic Cells: Time-averaged AUC Increase Mean ± SEM (Lineage− HLA-DR+ CD123+, n=31, p=0.021): 32 ± 13% | Activated T cells (CD8+ CD69+ CD25−), median (Treatment 1, treated, baseline 19): 54 (n = 13, p < 0.001) cells/μL | Dendritic cells (Lin− HLA-DR+ CD123+/CD11+), median (Treatment 1, treated, baseline 3.5): 18 (n = 10, p = 0.001) cells/μL | LAK cells (CD8+ CD16+ CD38+), median (Treatment 1, treated, baseline 8): 27 (n = 10, p < 0.001) cells/μL | NK (ADCC responders) cells (CD8− CD16+), median (Treatment 1, treated, baseline 54): 253 (n = 12, p < 0.001) cells/μL | Activated T cells (CD8+ CD69+ CD25−), median (Treatment 2, treated, baseline 19): 56 (n = 9, p < 0.001) cells/μL | Dendritic cells (Lin− HLA-DR+ CD123+/CD11+), median (Treatment 2, treated, baseline 6.5): 11.5 (n = 5, p = 0.02) cells/μL | LAK cells (CD8+ CD16+ CD38+), median (Treatment 2, treated, baseline 12): 28 (n = 4, p = 0.04) cells/μL | NK (ADCC responders) cells (CD8− CD16+), median (Treatment 2, treated, baseline 58): 285 (n = 4, p = 0.02) cells/μL | Activated T cells (CD8+ CD69+ CD25−), median (Treatment 3, treated, baseline 18): 74 (n = 4, p = 0.04) cells/μL | Dendritic cells (Lin− HLA-DR+ CD123+/CD11+), median (Treatment 3, treated, baseline 6): 55 (n = 4, p = 0.04) cells/μL | LAK cells (CD8+ CD16+ CD38+), median (Treatment 3, treated, baseline 12): 25 (n = 4, p = 0.02) cells/μL | NK (ADCC responders) cells (CD8− CD16+), median (Treatment 3, treated, baseline 56): 250 (n = 2, p = 0.04) cells/μL | CD4 IL-10 production, median % of the cells (after one course (5 daily i.m. injections), dropped from 66%): 4% | CD4 IFNγ, median % of the cells (after one course (5 daily i.m. injections), went from 8%): 63% | DC1 (CD11c+) Dendritic Cells: Maximum Analysis Visit Responses Mean (analysis visit day 22): 58% (22) | NK: Maximum Analysis Visit Responses Mean (analysis visit day 36): 41% (36) | LAK: Maximum Analysis Visit Responses Mean (analysis visit day 67): 34% (67) | DC2 (CD123+) Dendritic Cells: Maximum Analysis Visit Responses Mean (analysis visit day 80): 44% (80) | Total Dendritic Cells: Maximum Analysis Visit Responses Mean (analysis visit day 139): 38% (139) | Early Activation-Stage CD8+ T cells: Maximum Analysis Visit Responses Mean (analysis visit day 153): 162% (153) | DC1 (CD11c+) Dendritic Cells: Maximum Individual Patient Responses Mean (range) (change from baseline, n=31): 130% (−20 to 870%) | DC2 (CD123+) Dendritic Cells: Maximum Individual Patient Responses Mean (range) (change from baseline, n=31): 100% (−30 to 480%) | Total Dendritic Cells: Maximum Individual Patient Responses Mean (range) (change from baseline, n=31): 100% (−20 to 600%) | Early Activation-Stage CD8+ T cells: Maximum Individual Patient Responses Mean (range) (change from baseline, n=36): 210% (0 to 3,090%) | LAK: Maximum Individual Patient Responses Mean (range) (change from baseline, n=36): 90% (−90 to 630%) | NK: Maximum Individual Patient Responses Mean (range) (change from baseline, n=36): 140% (−40 to 1,220%) | Activated CD8+ T cells: Time-averaged AUC Increase Mean ± SEM (i.m. BrEA, HIV patients, CD3+ CD8+ and CD69+ or CD25+, n=36, p=0.005): 15 ± 5% | Activated CD8+ T cells: Maximum Analysis Visit Responses Mean (i.m. BrEA, HIV patients, analysis visit day 22): 25% (22) | Activated CD8+ T cells: Maximum Individual Patient Responses Mean (range) (i.m. BrEA, HIV patients, change from baseline, n=36): 70% (−10 to 340%) | DC1 to DC2 Ratio: Time-averaged AUC Increase Mean ± SEM (n=31, p=0.003): 44 ± 13% | Total Dendritic Cells: Time-averaged AUC Increase Mean ± SEM (n=31, p=0.010): 38 ± 14%
